Data reported in patent US20240335464A1, “ADMINISTRATION OF STING AGONIST, CHECKPOINT INHIBITORS, AND RADIATION” (Takeda Pharmaceutical Company Limited, priority 2020, published 2024).

System: EMT6 mouse breast carcinoma syngeneic tumor
Assay: Study 2: EMT6 mouse syngeneic tumor model, subcutaneous, anti-tumor efficacy
Assay type: in vivo, female BALB/c mice
Details: for GRI (%) Day 21: vs vehicle; for Complete Regressions: n=10/group, 60-day study; for Combination Assessment / Synergy Score %: data through Day 21
Text: Studies 1 and 2: EMT6 is a mouse breast carcinoma cell line. EMT6 mouse syngeneic tumor model was generated by subcutaneous (sc) inoculation with 0.2×10^6 EMT6 cells (cell suspension) in nine to ten week old female BALB/c mice (Vital River Laboratory Animal Technology Co., Ltd., Beijing, China) in the flank. When the mean tumor volume reached 60 mm^3 in Study 1 and 75 mm^3 in Study 2 the animals were randomized into one vehicle control and seven treatment groups (n=10/group). Mice were then dosed with vehicle (phosphate buffered saline (PBS)) or Compound No. 14 or 10 Gy Radiation or Compound No. 14 plus 10 Gy Radiation over an eight-day period. Tumor growth and body weight were measured three times per week during the treatment and post-treatment periods. Mice were humanely euthanized once they reached their humane endpoint or until study termination on day 72 (Study 1) or on day 60 (Study 2).
Studies 1 and 2: A 0.1 mg/mL stock solution of Compound No. 14 was formulated in PBS and administered intravenously (IV) based on exact animal body weight on each day of treatment, using a dosing volume of 10 mL/kg body weight. Final doses received were 1.0 mg/kg. […] Compound No. 14 was administered on a Q3D schedule for 3 doses (Day 2, 5 and 8) in single agent treatment group and in combination treatment groups. Dose formulation of Compound No. 14 was prepared once and utilized for dosing on Days 2, 5 and 8.
Radiation treatment for Studies 1 and 2 was performed using RadSource RS 2000 X-ray irradiator (Rad Source Technologies). Animals received 1.046 Gy/minute of radiation and approximately 9.5 min was needed to reach a 10 Gy dose delivery. Animals were anesthetized prior to placement in irradiation chamber using isoflurane and checked for reflexes. Radiation beam was focused on tumor with manual positioning. Radiation was administered via manual positioning in a single 10 Gy dose on either day 0, 2 or 4 in Study 1, and on either day 0, 1, 2, 3 or 4 in Study 2.
Tumors were measured three times weekly using vernier calipers. Tumor volumes were calculated using standard equation: V=W^2×L/2, where V=volume, W=width, and L=length for the tumor. When mean tumor volumes reached approximately 60 mm^3 for Study 1, 75 mm^3 for Study 2, and 110 mm^3 for Study 3, mice were randomized into eight groups (n=10/group) in Studies 1 and 2, and nine groups (n=8/group) in Study 3. These groups were then dosed with vehicle (PBS), Compound No. 14, Radiation, anti-mPD-1 or isotype control, or combinations of these agents as described in Tables 1a, 2a, and 3a. Tumor size and body weight were measured three times a week for the duration of each study. Mice were euthanized for Studies 1 and 2 when their tumor volumes reached greater than 10% of their body weight or when an individual tumor exceeded the humane end-point for size (>2 cm) or when an animal lost 20% of their body weight relative to the start of the study or lost 15% of their body weight in any 24 hr time frame. Mice were euthanized in Study 3 when tumor volume exceeded 2,000 mm^3 or an animal lost more than 20% of their body weight relative to the start of study.
Growth Rate Inhibition: The differences in the tumor growth trends over time between pairs of treatment groups were assessed by fitting each animal's data to a simple exponential growth model and comparing the mean growth rates of the two groups, as described in more detail below. The difference in the growth rates was summarized by the GRI, which is the reduction in growth rate experienced by the treatment group relative to that of the reference group, expressed as a fraction of the vehicle growth rate.
μT and μC are the mean tumor growth rates for the treatment and reference groups, respectively. μV is the mean tumor growth rate for the vehicle group, which in most cases is the same as the reference group.
A GRI greater than 100% is interpreted as tumor regression when the vehicle group is the same as the reference group. […]

[1] = Compound No. 14 1.0 mg/kg IV Q3D×3 + Radiation (10Gy) (Day 2)
[2] = Compound No. 14 1.0 mg/kg IV Q3D×3 + Radiation (10Gy) (Day 3)
[3] = Compound No. 14 1.0 mg/kg IV Q3D×3 + Radiation (10Gy) (Day 4)
[4] = Compound No. 14 + Radiation (10Gy) (Day 0)
[5] = Compound No. 14 + Radiation (10Gy) (Day 1)
[6] = Compound No. 14 + Radiation (10Gy) (Day 2)
[7] = Compound No. 14 + Radiation (10Gy) (Day 3)
[8] = Compound No. 14 + Radiation (10Gy) (Day 4)

With `Nc1ncnc2c1ncn2[C@@H]1O[C@@H]2COP(=O)(S)O[C@@H]3[C@H](O)[C@@H](COP(=O)(S)O[C@H]2[C@H]1F)O[C@H]3n1cc(F)c2c(=O)[nH]cnc21` (stereo partly drawn) [Compound No. 14] the “GRI (%) Day 21” value (Compound No. 14 1.0 mg/kg IV Q3D×3 (Days 2, 5, 8), single agent) was 20%, the “GRI (%) Day 21” value (Compound No. 14 1.0 mg/kg IV Q3D×3 + Radiation (10Gy) (Day 0)) was 60% and the “GRI (%) Day 21” value (Compound No. 14 1.0 mg/kg IV Q3D×3 + Radiation (10Gy) (Day 1)) was 62%. For the same compound, the “Complete Regressions” value [1] was 2, the “GRI (%) Day 21” value [1] was 68% and the “Complete Regressions” value [2] was 4. For the same compound, the “GRI (%) Day 21” value [2] was 64%, the “Complete Regressions” value [3] was 2 and the “GRI (%) Day 21” value [3] was 60%. For the same compound, the “Combination Assessment” value [4] was “additive”, the “Synergy Score %” value [4] was −20% and the “Combination Assessment” value (Compound No. 14 + Radiation (10Gy) (Day 0), listed as Compound No.14) was “Additive”. The “Combination Assessment” value [5] was “Additive”, the “Synergy Score %” value [5] was −22% and the “Combination Assessment” value [6] was “synergistic”. The “Synergy Score %” value [6] was −28%, the “Combination Assessment” value (Compound No. 14 + Radiation (10Gy) (Day 2), listed as Compound No.14) was “Synergistic” and the “Combination Assessment” value [7] was “Additive”. The “Synergy Score %” value [7] was −24%, the “Combination Assessment” value [8] was “Additive” and the “Synergy Score %” value [8] was −20%.
